The source of these data is patent publication US20030203414A1, “COMPOUNDS THAT INHIBIT THE INTERACTION BETWEEN SIGNAL-TRANSDUCING PROTEINS AND THE GLGF (PDZ/DHR) DOMAIN AND USES THEREOF” (priority 1999, published 2003).

“Also recorded” adds a separate entry of the source. No end group written: not given here.

Assay [1] concerns the target T1, binding of FAP-1 to Fas proteins extracted from Jurkat T-cells (Homo sapiens, UniProt Q12923).
T1 construct: made in house; Fas is endogenous in Jurkat T-cell extract
As to the kind of experiment: Immuno-precipitation of native Fas from Jurkat T-cell extracts with GST-FAP-1, inhibition with tripeptides. Conditions: FIGS. 4C and 4D, Western analysis with anti-Fas monoclonal antibody. The method, then: GST-fusion proteins with or without FAP-1 were incubated with cell extracts from Jurkat T-cells expressing Fas. The bound Fas was detected by Western analysis using anti-Fas monoclonal antibody (F22120, Transduction Laboratories). The tripeptides, Ac-SLV and Ac-SLY were used for the inhibition assay of Fas/FAP-1 binding.

In another assay the test system is Fas/FAP-1 binding. As to the kind of experiment: In vitro inhibition assay of Fas/FAP-1 binding (GST-Fas fusion protein and in vitro-translated 35S-labeled FAP-1). To be noted: for binding of in vitro-translated FAP-1 to GST-Fas: FIG. 3A, GST-Fas (191-355), C-terminal 15 amino acids at 1-1000 μM, human PAMP at 1 mM as negative control. The method, then: HFAP-10 cDNA (Sato, et al. 1995) subcloned into the Bluescript vector pSK-II (Stratagene) was in vitro-translated from an internal methionine codon in the presence of ^35S-L-methionine using a coupled in vitro transcription/translation system (Promega, TNT lysate) and T7 RNA polymerase. The resulting ^35S-labeled protein was incubated with GST-Fas fusion proteins that had been immobilized on […] affinity beads (Pharmacia) in a buffer containing 150 mM NaCl, 50 mM Tris [pH 8.0], 5 mM DTT, 2 mM EDTA, 0.1% NP-40, 1 mM PMSF, 50 μg/ml leupeptin, 1 mM Benzamidine, and 7 μg/ml pepstatin for 16 hours at 4° C. After washing vigorously 4 times in the same buffer, associated proteins were recovered with the glutathione-Sepharose beads by centrifugation, eluted into boiling Laemmli buffer, and analyzed by SDS-PAGE and fluorography.
In vitro-translated [^35]HFAP-1 was purified with a NAP-5 column (Pharmacia) and incubated with 3 μM of GST-fusion proteins for 16 hours at 4° C. After washing 4 times in the binding buffer, radioactivity incorporation was determined in a b counter. The percentage of binding inhibition was calculated as follows: percent inhibition=[radioactivity incorporation using GST-Fas (191-335) with peptides−radioactivity incorporation using GST-Fas (191-320) with peptides]/[radioactivity incorporation using GST-Fas (191-335) without peptides−radioactivity incorporation using GST-Fas (191-320) without peptides]. n=3.

Assay [2] concerns DLD-1 human colon cancer cells. As to the kind of experiment: Microinjection of synthetic tripeptides into DLD-1 cells, Fas-induced apoptosis. The class given is cell-based. Conditions: tripeptide 100 mM microinjected into the cytoplasm; CH11 500 ng/ml; 16 to 20 hours postinjection; condensed chromatin, Hoechst 33342. The procedure: DLD-1 human colon cancer cells were cultured in RPMI 1640 medium containing 10% FCS. For microinjection, cells were plated on CELLocate (Eppendorf) at 1×10^5 cells/2 ml in a 35 mm plastic culture dish and grown for 1 day. Just before microinjection, Fas monoclonal antibodies CH11 (MBL International) was added at the concentration of 500 ng/ml. All microinjection experiments were performed using an automatic microinjection system (Eppendorf transjector 5246, micro-manipulator 5171 and Femtotips) (Pantel, et al. 1995). Synthetic tripeptides were suspended in 0.1% (w/v) FITC-Dextran (Sigma)/K-PBS at the concentration of 100 mM. The samples were microinjected into the cytoplasmic region of DLD-1 cells. Sixteen to 20 hours postinjection, the cells were washed with PBS and stained with 10 μg/ml Hoechst 33342 in PBS. After incubation at 37° C. for 30 minutes, the cells were photographed and the cells showing condensed chromatin were counted as apoptotic.
For each experiment, 25-100 cells were microinjected. Apoptosis of microinjected cells was determined by assessing morphological changes of chromatin using phase contrast and fluorescence microscopy (Wang, et al., 1995; McGahon, et al., 1995). The data are means +/−S.D. for two or three independent determinations.

Fas/FAP-1 binding, sequence (Q12923 1361-1456 limits assumed): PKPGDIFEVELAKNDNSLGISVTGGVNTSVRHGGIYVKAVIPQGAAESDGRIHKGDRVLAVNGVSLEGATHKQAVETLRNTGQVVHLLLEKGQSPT
T1 sequence (Q12923 whole entry): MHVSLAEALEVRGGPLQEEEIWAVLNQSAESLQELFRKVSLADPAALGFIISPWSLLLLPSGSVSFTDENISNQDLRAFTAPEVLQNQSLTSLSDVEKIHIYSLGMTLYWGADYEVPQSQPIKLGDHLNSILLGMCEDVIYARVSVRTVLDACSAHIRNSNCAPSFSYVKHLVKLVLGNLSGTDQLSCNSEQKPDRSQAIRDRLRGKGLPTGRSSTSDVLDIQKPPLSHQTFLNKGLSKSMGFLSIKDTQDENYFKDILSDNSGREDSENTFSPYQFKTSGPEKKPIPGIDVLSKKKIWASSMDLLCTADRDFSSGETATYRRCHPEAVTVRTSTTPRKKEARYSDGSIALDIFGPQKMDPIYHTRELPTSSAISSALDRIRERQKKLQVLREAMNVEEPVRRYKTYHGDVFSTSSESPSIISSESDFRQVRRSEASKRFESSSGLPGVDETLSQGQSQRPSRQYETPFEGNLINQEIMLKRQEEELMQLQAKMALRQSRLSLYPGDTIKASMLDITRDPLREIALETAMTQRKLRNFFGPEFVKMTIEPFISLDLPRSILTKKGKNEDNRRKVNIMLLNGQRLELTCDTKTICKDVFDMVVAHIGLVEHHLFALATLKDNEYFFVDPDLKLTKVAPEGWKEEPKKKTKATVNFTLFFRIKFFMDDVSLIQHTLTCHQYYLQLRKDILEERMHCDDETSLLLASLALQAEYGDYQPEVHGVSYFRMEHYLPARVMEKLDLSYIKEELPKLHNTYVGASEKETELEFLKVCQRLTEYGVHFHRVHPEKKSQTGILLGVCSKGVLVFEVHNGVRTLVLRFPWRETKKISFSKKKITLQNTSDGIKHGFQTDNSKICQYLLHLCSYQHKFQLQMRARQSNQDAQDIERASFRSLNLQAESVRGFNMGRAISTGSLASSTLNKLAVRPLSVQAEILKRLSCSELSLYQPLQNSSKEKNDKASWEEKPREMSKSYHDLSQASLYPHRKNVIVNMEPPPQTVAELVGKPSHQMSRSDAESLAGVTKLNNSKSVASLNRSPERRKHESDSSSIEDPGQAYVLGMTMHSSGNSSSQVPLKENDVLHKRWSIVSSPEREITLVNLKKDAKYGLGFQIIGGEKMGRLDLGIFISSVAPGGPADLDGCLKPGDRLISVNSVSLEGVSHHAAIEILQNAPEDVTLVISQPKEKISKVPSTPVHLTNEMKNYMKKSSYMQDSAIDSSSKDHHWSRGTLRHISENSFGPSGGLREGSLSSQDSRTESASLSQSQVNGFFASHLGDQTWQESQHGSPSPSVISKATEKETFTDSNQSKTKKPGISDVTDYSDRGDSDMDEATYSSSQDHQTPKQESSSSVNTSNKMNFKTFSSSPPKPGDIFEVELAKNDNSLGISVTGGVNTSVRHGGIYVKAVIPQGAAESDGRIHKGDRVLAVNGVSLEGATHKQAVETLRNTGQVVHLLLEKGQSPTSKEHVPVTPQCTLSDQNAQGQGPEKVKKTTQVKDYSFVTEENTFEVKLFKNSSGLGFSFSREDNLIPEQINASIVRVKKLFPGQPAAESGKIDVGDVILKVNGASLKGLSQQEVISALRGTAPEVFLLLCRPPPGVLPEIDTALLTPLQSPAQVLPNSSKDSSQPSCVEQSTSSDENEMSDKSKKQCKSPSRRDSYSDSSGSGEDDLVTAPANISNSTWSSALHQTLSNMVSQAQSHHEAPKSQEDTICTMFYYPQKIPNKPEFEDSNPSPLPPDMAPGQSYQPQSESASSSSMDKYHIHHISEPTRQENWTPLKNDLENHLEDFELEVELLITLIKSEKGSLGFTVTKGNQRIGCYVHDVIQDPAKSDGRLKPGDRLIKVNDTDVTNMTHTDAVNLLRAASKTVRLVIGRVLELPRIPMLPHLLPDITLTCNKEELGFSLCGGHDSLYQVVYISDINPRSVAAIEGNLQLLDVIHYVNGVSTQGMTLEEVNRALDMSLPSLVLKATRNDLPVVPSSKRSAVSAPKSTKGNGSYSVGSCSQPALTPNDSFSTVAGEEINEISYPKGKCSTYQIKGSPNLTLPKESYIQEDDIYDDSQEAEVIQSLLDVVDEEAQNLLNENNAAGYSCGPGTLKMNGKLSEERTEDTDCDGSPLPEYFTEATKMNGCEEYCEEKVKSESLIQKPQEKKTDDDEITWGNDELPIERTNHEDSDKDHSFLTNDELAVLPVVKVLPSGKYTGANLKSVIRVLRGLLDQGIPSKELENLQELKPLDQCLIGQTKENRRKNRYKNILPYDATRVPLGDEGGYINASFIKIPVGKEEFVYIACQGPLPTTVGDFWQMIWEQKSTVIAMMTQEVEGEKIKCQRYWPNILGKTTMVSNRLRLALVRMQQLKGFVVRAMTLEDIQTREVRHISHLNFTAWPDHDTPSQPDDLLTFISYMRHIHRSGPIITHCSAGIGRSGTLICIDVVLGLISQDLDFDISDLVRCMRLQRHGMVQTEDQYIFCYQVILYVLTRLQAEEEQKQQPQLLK

Take “Ac-SLV-COOH (Ac-Ser-Leu-Val-OH) [acetylated tripeptide, the three C-terminal amino acids of Fas]”: the “binding activity of FAP-1 to Fas proteins extracted from Jurkat T-cells” value in assay [1] was “abolished in a dose-dependent manner”. For the same substance, in the assay with Fas/FAP-1 binding (FIG. 3B, acetylated synthetic peptides), the “inhibitory effect on the binding of FAP-1 to Fas, truncated C-terminal peptides” value was “same level of inhibitory effect”. The “induction of apoptosis in microinjected DLD-1 cells” value in assay [2] is “dramatically induced apoptosis; also recorded: showed condensed chromatin”.

Take “human PAMP peptide: N-terminal 20 amino acids of proadrenomedullin, negative control (ARLDVASEFRKKWNKWALSR; ends and bridges not checked; UniProt P35318 22-41, looked up) [reference compound]”: the “binding of in vitro-translated FAP-1 to GST-Fas” value with Fas/FAP-1 binding was “had no effect”.

For “DSENSNFRNEIQSLV (Ac-DSENSNFRNEIQSLV) [synthetic 15 amino acids of Fas, synthetic peptide of the C-terminal 15 amino acids of Fas]”, the “binding of in vitro-translated FAP-1 to GST-Fas” value with Fas/FAP-1 binding was “dramatically reduced”.

As for “Ac-SLY: acetylated synthetic tripeptide SLY used as a non-binding control (Ac-Ser-Leu-Tyr) [reference compound]”, the “binding activity of FAP-1 to Fas proteins extracted from Jurkat T-cells” value in assay [1] is reported as “not”. In addition, the “induction of apoptosis in microinjected DLD-1 cells” value in assay [2] was “did not; also recorded: only one cell of the area appeared apoptotic”.
